The source of these data is article PMC3436892, “Novel African Trypanocidal Agents: Membrane Rigidifying Peptides” (PLoS ONE, 2012).

One series deals with BSF T. b. brucei VSG. The series can be described thus: FRAP of surface VSG. It is filed as cell-based, strain 427. The conditions noted are these: 8 µM peptide, 10 min at 37°C, cells immobilized in gelatin, line FRAP at 20°C (Fig. 2c). The protocol:
Bloodstream form T. b. brucei, strain 427, expressing VSG MITat1.6 were cultivated in HMI 9 media with 10% fetal calf serum. 1×10^7 cells were washed three times with ice cold trypanosome dilution buffer (TDB; 5 mM KCl, 80 mM NaCl, 1 mM MgSO4, 20 mM Na2HPO4, 2 mM NaH2PO4, 20 mM glucose, pH 7.6). The cell density was adjusted to 1×10^8 cells/mL and labeling of surface proteins was achieved by incubation with 1 µM sulfo-NHS coupled Atto 488 fluorescent dye (ATTO-TEC GmbH, Siegen) for 15 min on ice. After incubation the cells were washed three times with ice cold TDB to remove unbound dye. Labeled T. b. brucei cells were incubated with 8 µM SHP-1 for 10 min at 37°C. The fluorescently labeled cells were mixed 1∶3 with 10% Type-A gelatin from porcine skin (Sigma-Aldrich, Steinheim) in PBS, pH 7.8, at 37°C. 4 µL of the cell gelatin mixture was applied into a cover slide sandwich and mounted into a temperature controlled sample holder. The sample holder was cooled to 20°C until the cells were immobilized. Samples of SHP-1 treated and untreated MITat 1.6 wt cells were prepared identically. […] 10 pre-bleach and 100 post-bleach images were recorded at 2fps. VSG mobile fractions were determined according to Phair et al. (2004) using double normalization. The mobile fraction refers to the percentage of mobile VSG molecules within the measured region. […]

The test system of a further series is metacyclic T. b. brucei. The series can be described thus: 2 h in vitro killing assay, metacyclic form. In kind it is cell-based, Trypanosoma brucei brucei strain STIB247. The conditions noted are these: 2 h incubation, 1×10^4 cells/mL, HMI 9 with 10 % fetal bovine serum, live cells scored by hemocytometer, at least duplicate (Fig. 1a). How it is done: (§1) Light microscopy based trypanosome killing assays were performed as previously described in detail, [10], [21], [22]. Metacyclic Trypanosoma brucei brucei strain STIB247 were obtained from dissection of the salivary glands of infected tsetse flies. Newly hatched Glossina morsitans morsitans (24–48 h post eclosion) were fed two defibrinated horse blood meals containing 2×10^6 mL^-1 trypanosomes on two separate days. Flies were then maintained at 25°C in 75 % relative humidity and fed maintenance blood meals three times per week. Following day 20–30, flies were harvested and salivary glands were dissected out and placed into HMI 9 media containing 10 % fetal bovine serum for 30 minutes. Metacyclic cells were expelled into the media by the residual peristalsis of the salivary glands. Cells were collected via centrifugation and maintained in HMI 9 media with 20 % fetal bovine serum at 37°C in 5 % CO2 until use. Killing assays were conducted with 1×10^4 cells/mL in HMI 9 media containing 10 % fetal bovine serum. Live cells were scored via hemocytometer after 2 h incubation. Trypanosoma vivax strain ILRAD V34 and Trypanosoma congolense strain IL3000 were grown from stabilites in donor ICR mouse (Harlan, United Kingdom). […] Cells were incubated at 37°C for 2 h and live cells were scored visually via hemocytometer. […]

Series [1] concerns Bloodstream developmental forms of T. congolense. The series can be described thus: 2 h in vitro killing assay, T. congolense. In kind it is cell-based, Trypanosoma congolense strain IL3000. The conditions noted are these: 37°C, 1×10^7 cells/mL, HMI 9 with 20 % bovine serum, hemocytometer, at concentrations similar to BSF T. brucei (Fig. 1b). The protocol: as §1
Series [2] can be described thus: Circular dichroism spectroscopy. In kind it is physicochemical. The protocol: Spectra were recorded with a Jasco J-710 spectropolarimeter in a 1 mm quartz cuvette. Measurements were performed with a final concentration of 15 µM SHP-1 added from a stock of ethanol-solubilized peptide (final ethanol concentration 7.5 %) in 10 mM K2PO4, 50 mM Na2PO4, pH 7.5. Lipid associated peptide spectra were recorded with the addition of 0.1 µm unilamellar egg phosphatidylcholine liposomes at a peptide to lipid ration of 0.3. Spectra were averaged from four scans and the appropriate buffer scans were subtracted.
(Circular dichroism is the unequal absorption of left and right circularly polarised light.)

The test system of series [3] is Bloodstream developmental forms of T. vivax. The series can be described thus: 2 h in vitro killing assay, T. vivax. In kind it is cell-based, Trypanosoma vivax strain ILRAD V34. To be noted: 37°C, 1×10^7 cells/mL, HMI 9 with 20 % bovine serum, hemocytometer, at concentrations similar to BSF T. brucei (Fig. 1b). The protocol:
as §1

For “SDLGAVISLLLWGRQLFA [SHP-1, trypanocidal small hydrophobic peptide derived from an apolipoprotein, with characteristics of a secretory signal peptide]”, the “fraction of laterally mobile surface exposed VSG” value in the series on BSF T. b. brucei VSG is “decreases”. In addition, the “killing activity against metacyclic T. b. brucei” value in the series on metacyclic T. b. brucei is reported as “no killing activity”. Besides, in series [1], the “susceptibility of BSF T. congolense to killing” value is reported as “susceptible to killing”. In addition, in series [2] (15 µM peptide with 0.1 µm unilamellar egg phosphatidylcholine liposomes, peptide to lipid ratio 0.3, pH 7.5, peak 193 nm, minimum 208 nm), the “secondary structure in the presence of lipid (CD)” value was “α-helical structure”. In series [2] (15 µM peptide, 7.5 % ethanol, 10 mM K2PO4, 50 mM Na2PO4, pH 7.5, peak 195 nm, crossover about 205 nm, minimum 218 nm), the “secondary structure in solution (CD)” value is reported as “β-sheet conformation”. For the same sequence, in series [3], the “susceptibility of BSF T. vivax to killing” value is on record as “susceptible to killing”.
